Assay results reported in publication doi:10.1101/2025.05.12.653380v2 (biorxiv, 2026).

Molecular target: T1, HPC (helicase-primase complex) of HHV1, UL5-UL52-UL8 (Human alphaherpesvirus 1 strain 17, UniProt P10189+P10236)
T1 sequence (P10189 1-882): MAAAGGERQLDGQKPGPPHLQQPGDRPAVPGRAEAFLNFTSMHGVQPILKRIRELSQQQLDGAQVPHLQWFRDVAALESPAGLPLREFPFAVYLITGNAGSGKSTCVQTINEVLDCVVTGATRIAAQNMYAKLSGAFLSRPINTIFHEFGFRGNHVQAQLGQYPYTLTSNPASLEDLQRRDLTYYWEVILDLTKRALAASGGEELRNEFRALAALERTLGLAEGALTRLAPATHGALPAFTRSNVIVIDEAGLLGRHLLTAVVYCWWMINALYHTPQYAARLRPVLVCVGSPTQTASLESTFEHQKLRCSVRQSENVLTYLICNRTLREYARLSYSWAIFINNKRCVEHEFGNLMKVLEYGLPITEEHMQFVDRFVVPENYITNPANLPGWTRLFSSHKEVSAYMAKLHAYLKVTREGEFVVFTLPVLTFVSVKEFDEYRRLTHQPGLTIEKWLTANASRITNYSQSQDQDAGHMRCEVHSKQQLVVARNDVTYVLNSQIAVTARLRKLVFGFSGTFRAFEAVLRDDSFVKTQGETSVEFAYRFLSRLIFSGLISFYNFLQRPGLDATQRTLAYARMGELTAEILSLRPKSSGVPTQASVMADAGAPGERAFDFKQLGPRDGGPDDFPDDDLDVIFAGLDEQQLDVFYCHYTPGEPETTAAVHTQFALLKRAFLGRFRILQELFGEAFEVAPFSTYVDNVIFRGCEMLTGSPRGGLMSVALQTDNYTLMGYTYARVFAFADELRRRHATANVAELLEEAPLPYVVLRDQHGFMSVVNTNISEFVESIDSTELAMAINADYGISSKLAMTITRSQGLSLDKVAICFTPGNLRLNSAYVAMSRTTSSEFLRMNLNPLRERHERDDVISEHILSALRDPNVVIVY
T1 sequence (P10236 1-1058): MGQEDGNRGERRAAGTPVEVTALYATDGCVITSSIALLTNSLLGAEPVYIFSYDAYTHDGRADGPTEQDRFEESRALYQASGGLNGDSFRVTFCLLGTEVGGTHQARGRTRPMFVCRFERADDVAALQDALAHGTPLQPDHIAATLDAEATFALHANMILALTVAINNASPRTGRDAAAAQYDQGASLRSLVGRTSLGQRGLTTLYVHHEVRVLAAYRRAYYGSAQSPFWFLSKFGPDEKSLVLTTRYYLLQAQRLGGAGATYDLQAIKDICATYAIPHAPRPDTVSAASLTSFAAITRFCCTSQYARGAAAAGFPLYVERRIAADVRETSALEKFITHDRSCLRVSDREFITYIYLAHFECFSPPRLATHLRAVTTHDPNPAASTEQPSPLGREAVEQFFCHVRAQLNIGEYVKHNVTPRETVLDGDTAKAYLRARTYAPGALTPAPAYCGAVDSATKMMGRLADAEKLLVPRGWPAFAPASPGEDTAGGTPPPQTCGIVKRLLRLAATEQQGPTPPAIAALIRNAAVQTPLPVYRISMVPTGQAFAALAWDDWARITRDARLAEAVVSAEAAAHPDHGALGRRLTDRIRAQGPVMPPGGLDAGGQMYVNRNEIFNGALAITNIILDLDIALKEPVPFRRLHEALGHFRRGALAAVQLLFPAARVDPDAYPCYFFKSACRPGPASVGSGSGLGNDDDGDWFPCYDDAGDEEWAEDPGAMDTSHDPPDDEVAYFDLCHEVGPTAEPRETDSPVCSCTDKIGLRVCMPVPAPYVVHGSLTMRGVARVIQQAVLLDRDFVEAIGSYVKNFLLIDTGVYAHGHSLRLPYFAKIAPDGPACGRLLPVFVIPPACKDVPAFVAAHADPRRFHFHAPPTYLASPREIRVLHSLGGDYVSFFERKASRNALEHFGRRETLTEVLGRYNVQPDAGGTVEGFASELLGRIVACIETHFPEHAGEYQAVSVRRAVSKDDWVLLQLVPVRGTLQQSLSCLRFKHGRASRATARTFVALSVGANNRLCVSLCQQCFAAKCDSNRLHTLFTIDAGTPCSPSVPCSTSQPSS
T1 sequence (P10192 1-750 partner): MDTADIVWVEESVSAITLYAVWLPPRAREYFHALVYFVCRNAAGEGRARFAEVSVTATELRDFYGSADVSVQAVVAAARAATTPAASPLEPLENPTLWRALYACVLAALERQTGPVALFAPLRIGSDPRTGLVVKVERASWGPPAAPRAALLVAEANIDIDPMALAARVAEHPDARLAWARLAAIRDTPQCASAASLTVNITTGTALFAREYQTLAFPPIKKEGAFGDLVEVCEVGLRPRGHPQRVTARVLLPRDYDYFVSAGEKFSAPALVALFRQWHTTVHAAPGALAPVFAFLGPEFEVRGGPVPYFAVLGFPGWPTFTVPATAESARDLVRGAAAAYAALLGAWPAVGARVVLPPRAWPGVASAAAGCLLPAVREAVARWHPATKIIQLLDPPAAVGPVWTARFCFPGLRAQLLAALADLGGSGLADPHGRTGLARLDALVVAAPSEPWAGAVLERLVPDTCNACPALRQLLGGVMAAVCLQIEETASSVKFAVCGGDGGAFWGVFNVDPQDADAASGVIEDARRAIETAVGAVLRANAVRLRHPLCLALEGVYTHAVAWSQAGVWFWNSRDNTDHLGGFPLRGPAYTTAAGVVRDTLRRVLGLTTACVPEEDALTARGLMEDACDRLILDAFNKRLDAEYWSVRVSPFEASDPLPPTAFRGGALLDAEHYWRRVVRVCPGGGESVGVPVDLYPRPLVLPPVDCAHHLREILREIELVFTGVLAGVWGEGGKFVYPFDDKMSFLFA
Test: NADH-coupled ATPase assay, Morrison fit of Kiapp, mixed inhibition model
Assay type: biochemical

SMILES	Ki [nM]
Cc1cccc(C)c1N(CC(=O)Nc1ccc(-c2ncon2)cc1)C(=O)C1CCS(=O)(=O)CC1 [amenamevir]	1.84 ± 0.16
Cc1nc(N(C)C(=O)Cc2ccc(-c3ccccn3)cc2)sc1S(N)(=O)=O [pritelivir]	1.99 ± 0.18
